The text below walks through data of patent US10987371B2 (priority 2017, dated 2021).

One data set deals with Ebola. As to conditions: mouse, in vivo; cited from earlier work.
The conditions of data set [1]: in vivo.
Data set [2] relates to ZIKV PLCal_ZV. Kind of data set: microbe, parasite or virus in culture. The format is cell-based. Conditions: Zika virus, Vero.
For data set [3] the following is noted: human.
Another data set has as its system Vero E6 cells. As to conditions: African green monkey.
A further data set deals with ZIKV PRVABC59 isolate. As to conditions: mouse, in vivo.
Data set [4] has as its system ZIKV nonstructural protein 1 (NS1). It is filed as cell-based.
For data set [5], the system named is ZIKV PLCal_ZV. It is filed as cell-based.
The next data set is described as follows: in vivo. Conditions: male, C57BL/6, mouse.

For the compound `CCC(CC)COC(=O)[C@H](C)N[P@](=O)(OC[C@H]1O[C@@](C#N)(c2ccc3c(N)ncnn23)[C@H](O)[C@@H]1O)Oc1ccccc1` [GS-5734], the protection in mice in the data set on Ebola was 100%.
With `O=c1c(O[C@@H]2O[C@H](CO)[C@@H](O)[C@H](O)[C@H]2O)c(-c2ccc(O)c(O)c2)oc2cc(O)cc(O)c12` [Q3G, Quercetin-3-β-O-D-glucoside], the “time within which all mice died” value in data set [1] (male, C57BL/6, mouse, ip, 400 mg/kg) is recorded as at most 2 days. Also, the “survival and signs of toxicity” value in data set [1] (mouse) was “without signs of toxicity”. Besides, in data set [1] (mouse, ip, 200 mg/kg), the deaths entry was “One mouse” and the “weight loss of the surviving mice” value is around 15%. Further, the half-maximal effective concentration (EC50) in the data set on ZIKV PLCal_ZV [2] (read-out: EC50 against ZIKV PLCal_ZV) is 1.2 to 1.3 µM. Moreover, the concentration for an effect of 90% (EC90) with ZIKV PLCal_ZV [2] (read-out: EC90 against ZIKV PLCal_ZV) is around 1.5 µM. Further, in data set [3], the “calculated maximum recommended starting dose (MRSD)” value is reported as 0.813 mg/kg and the “daily dose to start clinical trials” value amounted to 56.91 mg. In the data set on Vero E6 cells, this compound showed a cell viability of 100%. The average weight loss with ZIKV PRVABC59 isolate is reported as around 20%. Moreover, the “animals surviving the infection” value in the data set with ZIKV PRVABC59 isolate (ip, 50 mg/kg) was 50%. For the same compound, the “concentrations with statistically significant reductions in NS1” value in data set [4] was at least 0.6 µM. In the data set with ZIKV PLCal_ZV [5], the “concentration at which complete inhibition of cytopathic effects (CPE) was observed” value worked out at 6.9 µM. The NOAEL in the data set “in vivo” came out at 100 mg/kg.
Take `NC(=O)c1nc(F)c[nH]c1=O` [T-705]: in the data set on Ebola, the “protection in IFNAR-/- mice” value is 100%.
In the case of `CCN(CC)CCOc1ccc(C(=C(Cl)c2ccccc2)c2ccccc2)cc1` [clomiphene], the protection of mice with Ebola was 90%.
On to `CN(C)CCOc1ccc(/C(=C(/CCCl)c2ccccc2)c2ccccc2)cc1` [toremifene], for which the protection of mice in the data set on Ebola is on record as 50%.

In general, EC50 refers to the concentration giving half of the maximal effect. The term EC90 denotes the concentration at which the effect reaches the 90% level. Broadly, the cell viability is the share of living cells, or the viability signal relative to a control. As a reminder, the NOAEL is the highest tested level that showed no adverse finding.
